From ChEMBL document CHEMBL1157886, “Potent dihydroquinolinone dopamine D2 partial agonist/serotonin reuptake inhibitors for the treatment of schizophrenia” (Bioorg Med Chem Lett, 2010)

What was measured:
D(2) dopamine receptor [1] = target: T1, D(2) dopamine receptor (Homo sapiens, UniProt P14416); assay: Displacement of [3H]spiperone form human dopamine D2 receptor by liquid scintillation counting
[2] = target: T2, Adrenergic receptor alpha-1 (Homo sapiens, UniProt P35348+P25100+P35368); assay: Binding affinity to human alpha1 adrenergic receptor by radioligand displacement assay
T2 sequence (P35348 whole entry): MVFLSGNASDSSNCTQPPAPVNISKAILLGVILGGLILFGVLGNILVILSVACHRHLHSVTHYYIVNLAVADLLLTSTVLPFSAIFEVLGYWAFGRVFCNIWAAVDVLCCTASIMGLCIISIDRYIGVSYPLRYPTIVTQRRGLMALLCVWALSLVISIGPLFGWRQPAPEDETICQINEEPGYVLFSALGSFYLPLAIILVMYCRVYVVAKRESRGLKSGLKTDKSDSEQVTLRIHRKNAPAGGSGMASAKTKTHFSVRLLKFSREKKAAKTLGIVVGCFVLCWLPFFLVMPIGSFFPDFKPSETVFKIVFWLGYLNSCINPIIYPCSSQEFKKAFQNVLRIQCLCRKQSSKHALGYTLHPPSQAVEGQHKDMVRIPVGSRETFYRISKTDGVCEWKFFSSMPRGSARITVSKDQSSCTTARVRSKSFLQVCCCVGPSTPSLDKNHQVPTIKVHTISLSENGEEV
T2 sequence (P25100 whole entry): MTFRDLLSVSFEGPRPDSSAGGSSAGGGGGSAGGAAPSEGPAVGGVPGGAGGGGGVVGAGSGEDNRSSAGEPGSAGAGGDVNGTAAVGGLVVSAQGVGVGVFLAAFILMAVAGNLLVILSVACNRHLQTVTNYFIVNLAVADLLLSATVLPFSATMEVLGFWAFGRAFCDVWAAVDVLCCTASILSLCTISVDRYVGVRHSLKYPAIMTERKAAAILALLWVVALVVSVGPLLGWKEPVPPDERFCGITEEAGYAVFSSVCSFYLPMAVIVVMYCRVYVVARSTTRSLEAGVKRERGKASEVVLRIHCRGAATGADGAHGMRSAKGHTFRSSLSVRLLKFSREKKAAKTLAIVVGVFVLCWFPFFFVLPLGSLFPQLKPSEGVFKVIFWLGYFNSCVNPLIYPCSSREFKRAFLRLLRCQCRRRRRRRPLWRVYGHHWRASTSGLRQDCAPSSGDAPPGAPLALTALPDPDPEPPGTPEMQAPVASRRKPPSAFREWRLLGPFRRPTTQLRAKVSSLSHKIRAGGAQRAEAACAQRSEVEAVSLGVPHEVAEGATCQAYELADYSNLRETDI
T2 sequence (P35368 whole entry): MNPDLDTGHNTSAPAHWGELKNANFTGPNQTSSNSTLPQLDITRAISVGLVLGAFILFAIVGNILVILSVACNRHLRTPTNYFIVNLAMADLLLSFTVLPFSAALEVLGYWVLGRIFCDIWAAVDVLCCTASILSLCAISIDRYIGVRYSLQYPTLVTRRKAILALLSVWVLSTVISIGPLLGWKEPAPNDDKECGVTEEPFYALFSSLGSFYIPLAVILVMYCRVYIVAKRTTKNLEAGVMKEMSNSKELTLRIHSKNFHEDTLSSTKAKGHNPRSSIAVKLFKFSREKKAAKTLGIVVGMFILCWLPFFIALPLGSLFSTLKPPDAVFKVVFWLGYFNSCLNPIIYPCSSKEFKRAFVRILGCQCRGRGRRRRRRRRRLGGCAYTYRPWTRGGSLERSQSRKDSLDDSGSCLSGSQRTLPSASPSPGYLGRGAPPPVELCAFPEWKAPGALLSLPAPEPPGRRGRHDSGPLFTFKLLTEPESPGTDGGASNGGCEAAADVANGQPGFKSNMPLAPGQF

D(2) dopamine receptor [3] = target: T1, D(2) dopamine receptor; assay: Ratio of compound to quinpirole partial agonist activity at human dopamine D2 receptor; type: functional
[4] = target: Sodium-dependent serotonin transporter (Homo sapiens, UniProt P31645)
Sequence of Sodium-dependent serotonin transporter (P31645 whole entry): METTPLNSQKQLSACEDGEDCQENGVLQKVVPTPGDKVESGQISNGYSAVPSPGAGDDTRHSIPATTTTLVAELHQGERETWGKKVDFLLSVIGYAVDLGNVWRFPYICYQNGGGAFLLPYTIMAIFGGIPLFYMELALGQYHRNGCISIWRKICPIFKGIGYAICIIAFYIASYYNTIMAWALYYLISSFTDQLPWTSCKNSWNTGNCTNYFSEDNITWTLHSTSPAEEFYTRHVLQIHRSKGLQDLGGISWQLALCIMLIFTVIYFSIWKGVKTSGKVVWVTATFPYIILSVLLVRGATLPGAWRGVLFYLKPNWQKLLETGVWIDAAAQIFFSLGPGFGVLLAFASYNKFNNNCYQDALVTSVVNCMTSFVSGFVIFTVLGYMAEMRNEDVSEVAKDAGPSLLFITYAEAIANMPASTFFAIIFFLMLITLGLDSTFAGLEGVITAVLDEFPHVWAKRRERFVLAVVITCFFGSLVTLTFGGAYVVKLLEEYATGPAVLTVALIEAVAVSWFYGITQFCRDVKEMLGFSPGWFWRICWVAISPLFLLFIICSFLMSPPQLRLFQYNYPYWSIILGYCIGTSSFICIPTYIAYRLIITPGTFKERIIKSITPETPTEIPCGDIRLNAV

T1 sequence (P14416 whole entry): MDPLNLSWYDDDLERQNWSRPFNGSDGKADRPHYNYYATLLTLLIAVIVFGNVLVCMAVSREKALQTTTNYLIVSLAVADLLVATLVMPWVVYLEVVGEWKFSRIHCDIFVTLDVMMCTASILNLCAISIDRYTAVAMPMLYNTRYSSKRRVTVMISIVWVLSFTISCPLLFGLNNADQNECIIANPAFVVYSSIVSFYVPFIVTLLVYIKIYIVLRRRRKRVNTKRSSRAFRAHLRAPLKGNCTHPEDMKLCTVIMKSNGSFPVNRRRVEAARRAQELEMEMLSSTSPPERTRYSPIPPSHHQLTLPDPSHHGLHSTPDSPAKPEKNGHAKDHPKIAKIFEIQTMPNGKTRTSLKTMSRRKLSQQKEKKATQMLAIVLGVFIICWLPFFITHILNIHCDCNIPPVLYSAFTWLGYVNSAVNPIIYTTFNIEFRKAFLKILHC

| Structure (SMILES) | Ki (D(2) dopamine receptor [1]) [nM] | Ki [2] [nM] | Ratio (D(2) dopamine receptor [3]) | Ki [4] [nM] |
| --- | --- | --- | --- | --- |
| O=C1CCc2ccc(CC3CC4CCC(C3)N4C[C@@H]3COc4c(ccc5c4CC(=O)N5)O3)cc2N1 (some centres undefined) | 16 | 8 | < 0.1 | 0.26 |
| O=C1CCc2ccc(OCCCCN3CCN(c4cccc5[nH]c(=O)oc45)CC3)cc2N1 | 8.3 | – | – | 94 |
| O=C1CCc2ccc(OCCCN3CCN(c4cccc5[nH]c(=O)oc45)CC3)cc2N1 | 8.6 | – | – | 93 |
| O=C1CCc2ccc(OCCN3CCN(c4cccc5[nH]c(=O)oc45)CC3)cc2N1 | 8.6 | – | – | 538 |
| O=C1CCc2ccc(CC3C4CCC3CN(C[C@@H]3COc5c(ccc6c5CC(=O)N6)O3)C4)cc2N1 (some centres undefined) | 6.3 | 46 | 0.4 | 1.5 |
| CS(=O)(=O)Nc1cc(OCCN2CCC(Oc3ccc4c(c3)NC(=O)CC4)CC2)ccc1F | 9 | 354 | < 0.1 | 30 |

More lines, in order of falling Ki (D(2) dopamine receptor [1]), values ahead:

| Ki (D(2) dopamine receptor [1]) [nM] | Ki [2] [nM] | Ratio (D(2) dopamine receptor [3]) | Ki [4] [nM] | Structure (SMILES) |
| --- | --- | --- | --- | --- |
| 19 | – | < 0.1 | 20 | CS(=O)(=O)Nc1cc(OCCN2CCC(Cc3ccc4c(c3)NC(=O)CC4)CC2)ccc1F |
| 18 | 91 | 0.21 | 22 | CS(=O)(=O)Nc1cccc(OCCN2CCC(Oc3ccc4c(c3)NC(=O)CC4)CC2)c1 |
| 11 | > 3300 | 0.25 | 1.7 | CS(=O)(=O)Nc1cccc(OCCN2CC3CCC(C2)C3Cc2ccc3c(c2)NC(=O)CC3)c1 (centres undefined) |
| 9 | – | < 0.1 | 19 | CS(=O)(=O)Nc1cccc(OCCN2CCC(Cc3ccc4c(c3)NC(=O)CC4)CC2)c1 |
| 8 | 2 | 0.38 | 1.9 | O=C1CCc2ccc(CC3CCN(C[C@@H]4COc5c(ccc6c5CC(=O)N6)O4)CC3)cc2N1 |
| 7 | 1100 | 0.85 | 5 | CS(=O)(=O)Nc1cc(OCCN2CC3CCC(C2)C3Cc2ccc3c(c2)NC(=O)CC3)ccc1F (centres undefined) |
| 2.5 | 2 | 0.41 | 20 | O=C1CCc2ccc(OC3CCN(C[C@@H]4COc5c(ccc6c5CC(=O)N6)O4)CC3)cc2N1 |
